Results from ChEMBL document CHEMBL3352707, “Antimycobacterial activity of natural products and synthetic agents: pyrrolodiquinolines and vermelhotin as anti-tubercular leads against clinical multidrug resistant isolates of Mycobacterium tuberculosis” (Eur J Med Chem, 2015).
≈ marks a conversion by molar mass, not a printed value.

What was measured:
Assay type in all cases: functional
[1] = system: Mycobacterium tuberculosis; experiment: Antimycobacterial activity against isoniazid, rifampin, streptomycin, ofloxacin-resistant Mycobacterium tuberculosis after 7 days by microplate Alamar blue assay; conditions: 168 h
[2] = system: Mycobacterium tuberculosis; experiment: Antimycobacterial activity against isoniazid, rifampin, ethambutol, streptomycin-resistant Mycobacterium tuberculosis after 7 days by microplate Alamar blue assay; conditions: 168 h
[3] = system: Mycobacterium tuberculosis; experiment: Antimycobacterial activity against isoniazid, rifampin, ethambutol, streptomycin, ofloxacin-resistant Mycobacterium tuberculosis after 7 days by microplate Alamar blue assay; conditions: 168 h
[4] = system: Mycobacterium tuberculosis; experiment: Antimycobacterial activity against isoniazid, rifampin, ethambutol, ofloxacin-resistant Mycobacterium tuberculosis after 7 days by microplate Alamar blue assay; conditions: 168 h
[5] = system: Mycobacterium tuberculosis; experiment: Antimycobacterial activity against isoniazid, rifampin-resistant Mycobacterium tuberculosis after 7 days by microplate Alamar blue assay; conditions: 168 h
[6] = system: Mycobacterium tuberculosis; experiment: Antimycobacterial activity against isoniazid, rifampin, streptomycin-resistant Mycobacterium tuberculosis after 7 days by microplate Alamar blue assay; conditions: 168 h
[7] = system: Mycobacterium tuberculosis; experiment: Antimycobacterial activity against isoniazid, rifampin, ethambutol-resistant Mycobacterium tuberculosis after 7 days by microplate Alamar blue assay; conditions: 168 h
[8] = system: Mycobacterium tuberculosis; experiment: Antimycobacterial activity against pyrazinamide-resistant Mycobacterium tuberculosis H37Rv ATCC 35828 after 7 days by microplate Alamar blue assay; conditions: H37Rv ATCC 35828, 168 h
[9] = system: Mycobacterium tuberculosis; experiment: Antimycobacterial activity against Ethionamide-resistant Mycobacterium tuberculosis H37Rv ATCC 35830 after 7 days by microplate Alamar blue assay; conditions: H37Rv ATCC 35830, 168 h

SMILES	MIC [1] [µg/mL]	MIC [2] [µg/mL]	MIC [3] [µg/mL]	MIC [4] [µg/mL]	MIC [5] [µg/mL]	MIC [6] [µg/mL]	MIC [7] [µg/mL]	MIC [8] [µg/mL]	MIC [9] [µg/mL]
CC1COc2c(N3CCN(C)CC3)c(F)cc3c(=O)c(C(=O)O)cn1c23 (stereo unspecified) [OFLOXACIN]	≥ 4	≤ 2	≥ 4	≥ 4	≤ 2	≤ 2	≤ 2		
C[n+]1cc2c(cn3c4ccccc4ccc23)c2ccccc21.[I-]								6.2	6.2
CO[C@H]1/C=C/O[C@@]2(C)Oc3c(C)c(O)c4c(O)c(c(/C=N/N5CCN(C)CC5)c(O)c4c3C2=O)NC(=O)/C(C)=C\C=C\[C@H](C)[C@H](O)[C@@H](C)[C@@H](O)[C@@H](C)[C@H](OC(C)=O)[C@@H]1C [RIFAMPIN]	≥ 2	≥ 2	≥ 2	≥ 2	≥ 2	≥ 2	≥ 2		
NNC(=O)c1ccncc1 [ISONIAZID]	≥ 2	≥ 2	≥ 2	≥ 2	≥ 2	≥ 2	≥ 2		
CC[C@@H](CO)NCCN[C@@H](CC)CO [ETHAMBUTOL]	≤ 2	≥ 8	≥ 8	≥ 8	≤ 2	≤ 2	≥ 8		
CN[C@@H]1[C@H](O[C@H]2[C@H](O[C@H]3[C@H](O)[C@@H](O)[C@H](N=C(N)N)[C@@H](O)[C@@H]3N=C(N)N)O[C@@H](C)[C@]2(O)C=O)O[C@@H](CO)[C@H](O)[C@H]1O [STREPTOMYCIN]	≥ 8	≥ 8	≥ 8	≤ 2	≤ 2	≥ 8	≤ 2		
CN1Cc2c(cn3c2ccc2ccccc23)-c2ccccc21								3.1 (≈ 10.9 µM)	6.2 (≈ 21.8 µM)
C/C=C/C1=CC=C/C(=C2\C(=O)CNC2=O)O1 [VERMELHOTIN]								6.2 (≈ 28.5 µM)	3.1 (≈ 14.3 µM)
